{
  "source": "patent US6750375B2",
  "about": "“Transgenic mouse comprising a disruption in an RGS9 gene” (California Institute of Technology, priority 2000, dated 2004)",
  "assay_type_in_all_cases": "in vivo, mouse",
  "key": {"[1]": {"tested_on": "RGS9 knockout mice and their wild type littermates", "experiment": "Locomotor activity (photobeam cage rack) in unlesioned animals", "method": "(§1) RGS9 knockout mice and their wild type littermates were placed in the photobeam cage rack activity system. The photobeam cage rack activity system was made by San Diego Instruments. Single events represent disruption of two distinct light beams 10 cm apart. Before drug administration, animals were allowed to habituate for 30 min. which was scored as baseline activity. […] All drugs were injected intraperitoneally. Drug effects were assessed for 30 min. Bodyweight was measured prior to all drug applications.\nLocomotion in Unlesioned Animals"}, "[2]": {"tested_on": "RGS9 knockout mice and their wild type littermates", "experiment": "Locomotion in dopamine depleted (reserpine treated) animals", "method": "as §1\nThere are several options to induce behavioral changes secondary to a dopaminergic deficit in rodents. However, a strong phenotype in mice is difficult o achieve. […] Therefore, we depleted the animals of dopamine using chronic treatment with reserpine (1 mg /kg per day×5 days). […] Baseline locomotor activity was already greater in homozygous knock-out animals (FIG. 2, n. s.)."}, "[3]": {"tested_on": "RGS9 knockout mice and their wild type littermates", "experiment": "Dyskinesia rating (abnormal involuntary movements) in reserpine treated animals", "settings": "apomorphine 5 mg/kg after chronic reserpine", "source_text": "To score for abnormal involuntary movements we adapted a rating scale that was previously used to score drug induced dyskinesia in monkeys (Goulet and Madra, JPET 2000). Both, trunk and limb, dyskinesia and stereotypic behavior were rated-absent (=O), mild (=1), moderate (=or 2) or severe (=3).\nUsing a modified monkey dyskinesia scale, there was a dramatic difference between homozygous knock out animals and wild type or heterozygous mice (FIG. 3)."}},
  "data": [
    {"compound": "Oc1cc2c(cc1O)C(c1ccccc1)CNCC2", "note": "(stereo not shown) [SKF 38393]", "values": [
      {"measurement": "increase in locomotion", "setting": "[1]; SKF 38393 10 mg/kg, all animals, no differences between genotypes (p=0.7)", "value": 2, "unit": "fold"}
    ]},
    {"compound": "C[C@H](N)Cc1ccccc1", "note": "[amphetamine, d-amphetamine]", "values": [
      {"measurement": "increase in locomotion, homozygous knock-out vs wild type", "setting": "[1]; amphetamine 5 mg/kg intraperitoneal, homozygous knock-out animals, p<0.05, t-test", "value": "significantly greater increase in locomotion"},
      {"measurement": "locomotion", "setting": "[1]; amphetamine 5 mg/kg intraperitoneal, wild type and RGS9 deficient animals", "value": "robust increase in locomotion"}
    ]},
    {"compound": "CN1CCc2cccc3c2[C@H]1Cc1ccc(O)c(O)c1-3", "note": "[apomorphine]", "values": [
      {"measurement": "locomotor activity", "setting": "[2]; apomorphine 5 mg/kg after chronic reserpine, all animals", "value": "induced locomotor activity in all animals"},
      {"measurement": "locomotor activity, homozygous knock-out vs other animals", "setting": "[2]; apomorphine 5 mg/kg after chronic reserpine, homozygous knock out animals, p<0.05", "value": "more pronounced in homozygous knock out animals"},
      {"measurement": "abnormal motor behavior (dystonia, hyperkinetic movements of the hindlimbs)", "setting": "[3]", "value": "induced abnormal motor behavior only in homozygous knockout animals"}
    ]},
    {"compound": "COC(=O)[C@H]1[C@H]2C[C@@H]3c4[nH]c5cc(OC)ccc5c4CCN3C[C@H]2C[C@@H](OC(=O)c2cc(OC)c(OC)c(OC)c2)[C@@H]1OC", "note": "[reserpine]", "values": [
      {"measurement": "spontaneous locomotion", "setting": "[2]; reserpine 1 mg/kg per day x 5 days", "value": "greatly reduced spontaneous locomotion"}
    ]}
  ]
}
